Measured values: PMC9316313, “Biochemical Properties of Atranorin-Induced Behavioral and Systematic Changes of Laboratory Rats” (Life, 2022)

Target: T1, human serum albumin (HSA) (Homo sapiens, UniProt P02768)
T1 construct: gene ALB; Albumin from human serum (A1887, Sigma Aldrich)
Assay: intrinsic fluorescence quenching (Stern-Volmer, binding constant KB), synchronous and 3D fluorescence
Conditions: read-out: intrinsic fluorescence quenching (Stern-Volmer, binding constant KB), synchronou (converted)

T1 sequence (P02768 25-609): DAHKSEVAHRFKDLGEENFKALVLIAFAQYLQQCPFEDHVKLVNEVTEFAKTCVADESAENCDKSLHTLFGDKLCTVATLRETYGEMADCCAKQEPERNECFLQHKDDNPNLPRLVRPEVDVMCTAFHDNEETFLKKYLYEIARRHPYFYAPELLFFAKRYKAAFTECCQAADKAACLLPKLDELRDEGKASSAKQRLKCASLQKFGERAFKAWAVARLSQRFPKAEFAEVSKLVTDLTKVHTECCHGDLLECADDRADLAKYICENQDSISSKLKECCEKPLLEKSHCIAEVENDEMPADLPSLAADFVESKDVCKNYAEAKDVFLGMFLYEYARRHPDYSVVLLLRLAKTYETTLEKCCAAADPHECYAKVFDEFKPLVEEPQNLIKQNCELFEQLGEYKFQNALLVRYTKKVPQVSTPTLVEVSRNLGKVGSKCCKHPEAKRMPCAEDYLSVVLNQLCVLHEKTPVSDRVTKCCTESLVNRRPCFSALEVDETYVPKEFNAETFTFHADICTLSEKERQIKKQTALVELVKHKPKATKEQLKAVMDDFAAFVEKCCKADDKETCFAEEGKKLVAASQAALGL

Kd: 235 nM
SMILES: COC(=O)c1c(C)cc(OC(=O)c2c(C)cc(O)c(C=O)c2O)c(C)c1O [ATR, Atranorin]
